“Also recorded” adds a separate entry of the source. Peptide text beside a SMILES is read from it.
Key:
Format in all cases: in vivo, Mice (C57B16)
[1] = tested on: Lewis Lung Carcinoma (LLC); assay: Tumor response in mice bearing LLC tumor during and after treatment with small peptides (Example II); details: for tumor volume day 21: average tumor volume on day 21, s.c. LLC, i.p. injection Mon/Wed/Fri; for tumor volume day 21 / mice showing a tumor response: 6 mice per group; for tumor control: mice with complete tumor control for 56 days / mice in group; for Response rate NC: number of mice with no change (stable disease); for Response rate NC / Response rate PR / Response rate PD / Response rate CR: of 6; for Response rate PR: number of mice with partial remission; for Response rate PD: number of mice with progressive disease; for effect on tumor growth / tumor growth curves compared with thalidomide: result in words; for effect on tumor growth: i.p. peptide, LLC tumor; for Response rate CR: number of mice with complete response; for mice showing a tumor response: response = maximally a growth of 25% within seven days; for tumor growth curves compared with thalidomide: FIG. 1
Protocol: Animals and tumor model: Mice (C57B16) are transplanted with the syngeneic Lewis Lung Carcinoma (LLC) subcutaneously.
Treatment modalities: mice are treated with small peptides or control substances beginning on the day of transplantation by i.p. injection. Mice are injected on Monday, Wednesday and Friday, until end of experiment. Experiment ends are based on: tumor size >20 mm, suffering of the animal, weight loss over 20%, ulcerations etc. Otherwise the experiment is terminated eight weeks after start.
Tumor diameter is measured in two directions by caliper measurements and tumor volume (V) is calculated using the formula V=0.4(A^2×B) (where B represents the largest diameter and A the diameter perpendicular to B). The classification of tumor response is: progressive disease (PD), increase of tumor volume (>50%) within seven days (between day 3 and day 10 after begin of treatment); stable disease, tumor volume equal to volume at day 3 in a range of −25% and +25%; partial remission (R), tumor volume −25% to −90%, and complete response CR, (no) measurable tumor at 56 days after start of treatment.
Tumor growth evaluation is terminated when a tumor diameter of 20 mm is reached.
Mice were treated with i.p. injections of peptides 24 hours after implantation of LLC tumor. In all mice receiving PBS tumor developed which reached on average a tumor volume of 1600 mm^3 in 21 days. Approximately tumor diameter was at that time point 16 mm. Thalidomide was used as a positive control.

[2] = Toxicity during escalating dose experiment: animal weight, blood markers, leukocyte count (Example III)
Protocol: FIG. 5. During the escalating dose experiment toxicity of LQGV (SEQ ID NO:1) was evaluated by evaluation of blood markers for kidney and liver function and leukocyte count.
FIG. 6. During the escalating dose experiment toxicity of LQGV (SEQ ID NO:1) was evaluated by monitoring of animal weight.
Assessment of side-effects. Side-effects are monitored on daily basis. a) Weight of the animals is monitored daily. b) Behavior of the animals is observed. c) Animals are checked for possible side effects such as diarrhea.
During the experiment toxicity of the administered peptides was evaluated by monitoring of animal weight (FIG. 6) and by evaluation of blood markers for kidney and liver function and leukocyte count (FIG. 5). […] It is important to compare not only between the groups but also within the groups between individual mice.

[3] = tested on: Lewis Lung Carcinoma (LLC); assay: Escalating doses of peptide LQGV in Lewis Lung Carcinoma-bearing mice (Example III); details: for PD: number of mice with progressive disease (outgrowth); for TR: number of mice with tumor response (growth delay till day 20); for RR: tumor response rate
Protocol: FIG. 3 Tumor volume of Lewis Lung Carcinoma-bearing C57B16 mice treated with escalating doses of peptide LQGV (SEQ ID NO:1). Doses of 1.7, 5, 17, 50 and 170 mg/kg were tested.
Animals and tumor model. Mice (C57B16) are transplanted with the syngeneic Lewis Lung Carcinoma (LLC) subcutaneously. Treatment is stared 24 hours after implantation. The number of animals is eight per group to increase the power of this study. As we are starting the treatment when no tumor is palpable the change of error is larger compared to a study with established tumors. Treatment modalities: mice are treated with small peptides or sham control beginning one day after transplantation by i.p. injection. Mice will be injected on Monday, Wednesday and Friday, until end of experiment. Experiment ends based on criteria as tumor size >20 mm, suffering of the animal, weight loss over 20%, ulcerations. Otherwise the experiment will be terminated eight weeks after start.
Tumor diameter is measured in two directions by caliper measurements and tumor volume (V) is calculated using the formula V=0.4(A2×B) (where B represents the largest diameter and A the diameter perpendicular to B). The classification of tumor response is: progressive disease (PD), increase of tumor volume (>25%) within seven days; no change (NC), tumor volume equal to volume at start of treatment in a range of −25% and +25%; partial remission (PR), decrease of tumor volume between −25% and −90%; complete remission (CR), tumor volume less than 10% of initial volume. Tumor growth evaluation is terminated when a tumor diameter of 20 mm is reached.
Tumor volumes were analyzed using non-parametric testing for multiple groups (Kruskal Wallis) and pair wise comparison of the different groups using Mann Whitney.
Tumor response was evaluated slightly differently from proposed. As we start shortly after tumor induction, shrinkage of the tumor compared to before treatment cannot be made. […] So during the experimental time-frame outgrowth (progressive disease, PD) and tumor response (TR, growth delay till day 20) was evaluated. In Table 3 response rates are depicted.

[4] = escalating dose experiment, FIG. 5

Molecule: Ala Gln Gly Val (AQGV; Chemically synthesized antitumor peptide AQGV) [4-mer peptide, derivative of LQGV]
- tumor volume day 21 [1]: 1030 mm^3
- tumor control [1]: 2/6
- Response rate NC [1]: 1
- Response rate PR [1]: 2
- Response rate PD [1]: 3
- effect on tumor growth [1]: tumor growth delay

Molecule: VLPALP (Chemically synthesized antitumor peptide VLPALP) [6-mer peptide]
- tumor volume day 21 [1]: 880 mm^3
- tumor control [1]: 3/6
- Response rate CR [1]: 2
- Response rate NC [1]: 2
- Response rate PR [1]: 1
- Response rate PD [1]: 1
- mice showing a tumor response [1]: five out of six
- effect on tumor growth [1]: tumor growth delay

Molecule: CC(C)C[C@H](N)C(=O)N[C@@H](CCC(N)=O)C(=O)NCC(=O)N[C@H](C(=O)O)C(C)C [LQGV, Leu Gln Gly Val] (H-LQGV-OH)
- effect on animal weight ([2]; at all doses (1.7-170 mg/kg), FIG. 6): no effect on animal weight
- effect on leukocyte number [2, 4]: no effect on leukocyte number
- effect on liver and kidney parameters (blood markers) [2, 4]: did not affect the liver and kidney parameters
- tumor growth curves compared with thalidomide [1]: comparable to Thalidomide; also recorded: comparable tumor growth curves
- tumor volume day 21 [1]: 270 mm^3
- tumor control [1]: 2/6
- Response rate CR [1]: 2
- Response rate NC [1]: 2
- Response rate PR [1]: 1
- Response rate PD [1]: 1
- mice showing a tumor response [1]: five out of six
- effect on tumor growth [1]: strong tumor growth delay
- PD ([3]; 1.7 mg/kg i.p.): 9
- TR ([3]; 1.7 mg/kg i.p.): 2
- RR ([3]; 1.7 mg/kg i.p.): 18%
- PD ([3]; 5 mg/kg i.p.): 4
- TR ([3]; 5 mg/kg i.p.): 7
- RR ([3]; 5 mg/kg i.p.): 64%
- PD ([3]; 17 mg/kg i.p.): 2
- TR ([3]; 17 mg/kg i.p.): 9
- RR ([3]; 17 mg/kg i.p.): 82%
- PD ([3]; 50 mg/kg i.p.): 4
- TR ([3]; 50 mg/kg i.p.): 7
- RR ([3]; 50 mg/kg i.p.): 64%
- effect on tumor growth ([3]; 50 mg/kg, result in words): strongly inhibited tumor growth
- PD ([3]; 170 mg/kg i.p.): 4
- TR ([3]; 170 mg/kg i.p.): 7
- RR ([3]; 170 mg/kg i.p.): 64%
- effect on tumor growth ([3]; dose of 5 mg/kg, result in words): a delay in tumor growth was observed
- delay in tumor growth relative to 5 mg/kg ([3]; higher dosages (above 5 mg/kg), result in words): more pronounced

Molecule: LQG
- tumor growth curves compared with thalidomide [1]: comparable to Thalidomide; also recorded: comparable tumor growth curves
- tumor volume day 21 [1]: 620 mm^3
- tumor control [1]: 3/6
- Response rate CR [1]: 2
- Response rate NC [1]: 4
- mice showing a tumor response [1]: all animals
- effect on tumor growth [1]: tumor growth delay

Molecule: Leu Ala Gly Val (LAGV; Chemically synthesized antitumor peptide LAGV) [4-mer peptide, derivative of LQGV]
- tumor volume day 21 [1]: 1600 mm^3
- tumor control [1]: 2/6
- Response rate CR [1]: 1
- Response rate NC [1]: 1
- Response rate PR [1]: 1
- Response rate PD [1]: 3

Molecule: LAG
- tumor volume day 21 [1]: 1550 mm^3
- tumor control [1]: 2/6
- Response rate CR [1]: 1
- Response rate PR [1]: 1
- Response rate PD [1]: 4

Molecule: O=C1CCC(N2C(=O)c3ccccc3C2=O)C(=O)N1 (stereo not drawn) [Thalidomide, reference compound]
- tumor volume day 21 [1]: 340 mm^3
- tumor control [1]: 3/6
- Response rate CR [1]: 2
- Response rate NC [1]: 3
- Response rate PR [1]: 1
- mice showing a tumor response [1]: all animals
- effect on tumor growth ([3]; positive control group, result in words): only some tumor growth delay
